The subject of this assay is pressor response to angiotensin II. As to the kind of experiment: Inhibition of pressor response to angiotensin II in conscious rats. In kind it is in vivo. Conditions: Rattus norvegicus, i.v., intravenous angiotensin II 250 mg/kg [sic], change in mean arterial pressure, read-out: IC50 (dose of compound needed to produce 50% inhibition of the control response to angiotensin II). The procedure:
Angiotensin II antagonist activity of the compounds of Formula (I) is assessed by in vitro and in vivo methods. In vitro antagonist activity is determined by the ability of the compounds to compete with ^125 I-angiotensin II for binding to vascular angiotensin II receptors and by their ability to antagonize the contractile response to angiotensin II in the isolated rabbit aorta. In vivo activity is evaluated by the efficacy of the compounds to inhibit the pressor response to exogenous angiotensin II in conscious rats and to lower blood pressure in a rat model of renin dependent hypertension.
Rats are prepared with indwelling femoral arterial and venous catheters and a stomach tube (Gellai et al., Kidney Int. 15:419, 1979). Two to three days following surgery the rats are placed in a restrainer and blood pressure is continuously monitored from the arterial catheter with a pressure transducer and recorded on a polygraph. The change in mean arterial pressure in response to intravenous injections of […] angiotensin II is compared at various time points prior to and following the administration of the compounds intravenously or orally at doses of 0.1 to 300 mg/kg. The dose of compound needed to produce 50% inhibition of the control response to angiotensin II (IC50) is used to estimate the potency of the compounds. […]

Take `CCCCc1ncc(CSc2ccccc2C(=O)O)n1Cc1ccc(C(=O)O)cc1` [S-[(2-n-Butyl-1-{(4-carboxyphenyl)methyl}-1H-imidazol-5-yl)methyl]thiosalicyclic Acid]: the ED50 is roughly 0.5 mg/kg.

For the origin of these results see US5929249A, “Substituted imidazolyl-alkyethio-aldanoic acids” (SmithKline Beecham Corporation, priority 1992, dated 1999).
